Laboratory results from PubChem BioAssay AID1996.
Values after ≈ are worked out from the molar mass of the structure shown.

Details: buffer; pH 7.4; 200.0 µM

SMILES | solubility kinetic [µg/mL]
Cc1ccc(CN(C)C(=O)c2c(C)nn(-c3ccccc3)c2C)cc1 | > 50
Cn1c(SCC(=O)N2CCCCCC2)nnc1-c1ccco1 | > 48.1
O=C(Nc1nonc1-c1ccc(Cl)cc1)c1ccccc1 | 0.7 (≈ 2.34 µM)
Cc1ccc(S(=O)(=O)NCc2cccnc2)cc1C | > 41.5
CC(C)n1c(/N=C/c2ccccc2O)nc2ccccc21 | 31.4 (≈ 112 µM)
COc1ccccc1CNC(=O)COC(=O)c1ccco1 | > 43.4
Cn1ccsc1=NC(=O)c1ccc(S(=O)(=O)C(F)F)cc1 | 2.5 (≈ 7.52 µM)
Cc1cc(Cl)ccc1NC(=O)c1ccc2c(c1)OCO2 | 2.5 (≈ 8.63 µM)
Nc1ccc(-c2nc3ccc(N)cc3s2)cc1 | 17.7 (≈ 73.3 µM)
NS(=O)(=O)c1ccc(NC(=O)c2ccc3c(c2)CCCC3)cc1 | < 0.4
O=c1[nH]c(=S)n(Cc2ccc(F)cc2)c(O)c1C=NCCCn1ccnc1 | > 58.1
O=C(CSc1ccccn1)Nc1ccc2c(c1)OCCO2 | > 45.4
O=C(O)C1c2ccccc2C(=O)N(Cc2ccc(F)cc2)C1c1ccncc1 (stereo not given) | > 56.5
COc1cc(N)c(Cl)cc1C(=O)OCC(=O)NCc1cccs1 | 20.6 (≈ 58.1 µM)
O=C(CSc1ncccn1)N1CCCc2ccccc21 | > 42.8
O=C(OCC(=O)N1CCCCCC1)c1cccnc1Cl | > 44.5
O=Cc1c(N2CCSCC2)nc2ccccn2c1=O | > 41.3
O=C(CNC(=O)c1ccc2ccccc2c1)NCc1ccc(F)cc1 | 1.9 (≈ 5.65 µM)
O=C(NCc1ccc(Cl)cc1)c1ccc(N2CCCC2=O)cc1 | 5.3 (≈ 16.1 µM)
Cc1cc(N2CCCC2=O)ccc1S(=O)(=O)NC1CCCCC1 | 29.3 (≈ 87.1 µM)

SMILES | solubility kinetic [µg/mL]
NS(=O)(=O)c1ccc(NC(=O)Nc2ccc(C(F)(F)F)cc2)cc1 | < 0.3
CC12CCC(=O)N1C(C(=O)NCCc1ccc(F)cc1)CS2 (stereo not given) | 46.3 (≈ 144 µM)
Cc1ccc[n+](CC(=O)c2ccc(Cl)cc2)c1.[Cl-] | > 42.3
N#CCCN(Cc1ccccc1)C(=O)c1cccs1 | > 40.6
Cn1c2ccccc2c2ncn(Cc3ccc(F)cc3)c(=O)c21 | < 0.2
Cc1ccc(O)c(NC(=O)c2cc(-c3ccccc3Cl)on2)c1 | 0.4 (≈ 1.22 µM)
CC(=O)Nc1ccc(S(=O)(=O)N2CCN(c3ccc([N+](=O)[O-])cc3)CC2)cc1 | 0.4 (≈ 0.989 µM)
COc1cc(NC(=O)COC(=O)C=C(C)C)c(C)cc1[N+](=O)[O-] | 17.2 (≈ 53.4 µM)
CCCCNC(=O)NC(C(N)=O)P(=O)(OCC)OCC (stereo not given) | > 46.4
O=C(O)CC1(CC(=O)Nc2ccc3ccccc3n2)CCCCC1 | > 49
Cc1ccc(Sc2ncccc2O)cc1 | 17.4 (≈ 80.1 µM)
O=C(Nc1ccccc1C(=O)N1CCCCCC1)c1ccc(F)cc1 | > 51.1
COc1ccc(NC(=O)c2ccc3c(c2)C(=O)N(Cc2ccncc2)C3=O)cc1S(N)(=O)=O | 3.4 (≈ 7.29 µM)
O=[N+]([O-])c1ccc2nc(NS(=O)(=O)c3ccccc3[N+](=O)[O-])sc2c1 | 55.7 (≈ 146 µM)
O=[N+]([O-])c1ccc(-n2cnc3ccccc32)c([N+](=O)[O-])c1 | > 42.6
Cc1cc(NC(=O)COC(=O)C(C)Oc2ccc(Cl)cc2Cl)no1 (stereo not given) | 42.2 (≈ 113 µM)
CN(CCOc1ccc(CC2SC(=O)NC2=O)cc1)c1ccccn1.O=C(O)/C=C\C(=O)O (stereo not given) | 68.2
CCc1ccc(S(=O)(=O)NC2CCCCNC2=O)cc1 (stereo not given) | > 44.5
CCCCC(=O)NC(c1ccccc1)c1ccc2cccnc2c1O (stereo not given) | < 0.4
Cc1cc(C)n2nc(C(=O)OCC(=O)N(CC(C)C)C3CCS(=O)(=O)C3)nc2n1 (stereo not given) | > 63.5

SMILES | solubility kinetic [µg/mL]
COc1ccc(N2CCN(C(=O)c3cccnc3)CC2)c([N+](=O)[O-])c1 | 36.6 (≈ 107 µM)
CCSc1c([N+](=O)[O-])c(=O)n(-c2ccccc2)c2ccccc12 | 1.3 (≈ 3.98 µM)
Cc1noc(C)c1C(=O)OCC(=O)N(C)C1CCS(=O)(=O)C1 (stereo not given) | > 49.6
COC(=O)Cn1c(=O)c(C)nc2ccccc21 | > 34.8
Cc1cc(C)n(CC(=O)NC2CCCCC2C)c(=O)c1C#N (stereo not given) | 16.7 (≈ 55.4 µM)
O=C(c1cccnc1)N1N=C2CCCCCC2C1(O)C(F)(F)F (stereo not given) | > 49.1
COC(=O)c1cc(-c2cccc(OC)c2)c2c(=O)[nH]c(=O)n(C)c2n1 | 3.4 (≈ 9.96 µM)
COCCCN1CN=C(NS(=O)(=O)c2ccc(C)cc2)NC1 | > 49
CS(=O)(=O)N1Cc2ccccc2CC1C(=O)O (stereo not given) | > 38.3
O=C(CCCOc1ccc(Cl)cc1)NC1CCCCC1 | 1.9 (≈ 6.42 µM)
O=C(CSc1ncc(C(F)(F)F)cc1Cl)N1CCNC1=O | > 51
COc1cccc(NC(=O)NCCCCc2ccccc2)c1 | 12.9 (≈ 43.2 µM)
CCC(=O)Nc1ccccc1-c1nc2ccccc2[nH]c1=O | > 44
COc1ccc2nc(Cl)cc(Cl)c2c1 | 0.9 (≈ 3.95 µM)
Cc1ccccc1CNCCCSc1ncccn1.Cl | 35.2
CCOC(=O)c1cc(S(=O)(=O)N2CCOCC2)cn1C | 45.1 (≈ 149 µM)
COC(=O)c1ccc(CSc2nc3ccccc3c(=O)n2C)o1 | 4.5 (≈ 13.6 µM)
S=C(NCc1ccccc1)N1CCN(c2ccccc2)CC1 | 0.5 (≈ 1.61 µM)
Cc1cc(OC(C)C(=O)Nc2cccnc2)ccc1Cl (stereo not given) | 35.8 (≈ 123 µM)
COC(OC)c1ccnc(-c2ccc(OC(C)=O)cc2)n1 | > 43.2
